Assay results: EP0275431A1, “Novel anthracycline derivatives, a process for preparing same and their use as medicaments” (MICROBIAL CHEMISTRY RESEARCH FOUNDATION, priority 1986, dated 1988)
Converted amounts (≈) assume the structure as drawn.

Assays:
[1] = Solubility in phosphate buffer solution (pH 7.4) at room temperature; format: physicochemical; details: aqueous buffer
Experimental: The phosphate buffer solution was prepared by mixing 0.05M potassium dihydrogenphosphate (KH2PO4) with an aqueous solution of sodium hydroxide.

[2] = test system: mouse leukemia L-1210 cells; test: Antitumor activity: increase of life span of mice transplanted intraperitoneally with leukemia L-1210 cells; details: beginning 24 hours after transplantation, observed for 30 days, CDF mice
Experimental: To assess the antitumor activity of the compounds of this invention against tumors in test animals, 1 x 10^5 mouse leukemia L-1210 cells mouse were transplanted intraperitoneally to CDF, mice. […] The survival time, in days, of the compound-treated group (T) was calculated, and that of the control group (C) receiving physiological saline solution alone was also calculated. Then, the increase of life span (T/C, %) was determined.

[3] = Dose 0.15 mg/kg/day intraperitoneally for 9 consecutive days
[4] = Dose 0.3 mg/kg/day intraperitoneally for 9 consecutive days
[5] = Dose 0.6 mg/kg/day intraperitoneally for 9 consecutive days
[6] = Dose 1.25 mg/kg/day intraperitoneally for 9 consecutive days
[7] = Dose 2.5 mg/kg/day intraperitoneally for 9 consecutive days
[8] = Dose 5 mg/kg/day intraperitoneally for 9 consecutive days

| SMILES | solubility [1] [mg/mL] | Increase of life span (T/C, %) [2, 3] [%] | Increase of life span (T/C, %) [2, 4] [%] | Increase of life span (T/C, %) [2, 5] [%] | Increase of life span (T/C, %) [2, 6] [%] | Increase of life span (T/C, %) [2, 7] [%] | Increase of life span (T/C, %) [2, 8] [%] |
| --- | --- | --- | --- | --- | --- | --- | --- |
| COc1cccc2c1C(=O)c1c(O)c3c(c(O)c1C2=O)CC(O)(C(=O)COC(=O)CCCCCCC(=O)O)CC3OC1OC(C)C(O)C(O)C1F [Compound 13 of Example 6(b), 7-0-(2,6-dideoxy-2-fluoro-α-L-talopyranosyl) adriamycinone 14-0-hemisuberate] | 30 (≈ 41.7 mM) | – | – | – | – | – | – |
| CCCCC(=O)OCC(=O)C1(O)Cc2c(O)c3c(c(O)c2C(OC2OC(C)C(O)C(O)C2F)C1)C(=O)c1c(OC)cccc1C3=O [Compound 3 of Example 1(b), 7-0-(2.6-dideoxy-2-fluoro-α-L-talopyranosyl) adriamycinone 14-0-valerate] | < 1 | 135 | 135 | >353 | >353 | >282 | > 306 |
| COc1cccc2c1C(=O)c1c(O)c3c(c(O)c1C2=O)CC(O)(C(=O)COC(=O)CCC(=O)O)CC3OC1OC(C)C(O)C(O)C1F [Compound 5 of Example 2(b), 7-0-(2,6-dideoxy-2-fluoro-a-L-talopyranosyl) adriamycinone 14-0-hemisuccinate] | 25 (≈ 37.7 mM) | – | 124 | >124 | >292 | >353 | > 353 |
| COc1cccc2c1C(=O)c1c(O)c3c(c(O)c1C2=O)CC(O)(C(=O)COC(=O)CCCCCC(=O)O)CC3OC1OC(C)C(O)C(O)C1F [Compound 11 of Example 5(b), 7-0-(2,6-dideoxy-2-fluoro-α-L-talopyranosyl) adriamycinone 14-0-hemipimelate] | 33 (≈ 46.8 mM) | 165 | 171 | 176 | >294 | >271 | >353 |
| COc1cccc2c1C(=O)c1c(O)c3c(c(O)c1C2=O)CC(O)(C(=O)COC(=O)CCCC(=O)O)CC3OC1OC(C)C(O)C(O)C1F [Compound 7 of Example 3(b), 7-0-(2.6-dideoxy-2-fluoro-a-L-talopyranosyl) adriamycinone 14-0-hemiglutarate] | 26 (≈ 38.4 mM) | 129 | 129 | >235 | 282 | >294 | > 306 |
| COc1cccc2c1C(=O)c1c(O)c3c(c(O)c1C2=O)CC(O)(C(=O)COC(=O)CCCCC(=O)O)CC3OC1OC(C)C(O)C(O)C1F [Compound 9 of Example 4(b), 7-0-(2.6-dideoxy-2-fluoro-a-L-talopyranosyl) adriamycinone 14-0-hemiadipate] | 33 (≈ 47.8 mM) | 112 | 141 | 165 | 265 | >353 | >353 |
| COc1cccc2c1C(=O)c1c(O)c3c(c(O)c1C2=O)CC(O)(C(=O)CO)CC3OC1OC(C)C(O)C(O)C1F [Control, 7-O-(2,6-dideoxy-2-fluoro-α-L-talopyranosyl)adriamycinone, reference compound] | < 1 | – | – | – | – | – | – |
